According to patent publication US20220381779A1, “METHODS FOR THE DIAGNOSIS OF BURULI ULCER” (INSERM (INSTITUT NATIONAL DE LA SANTÉ ET DE LA RECHERCHE …, priority 2019, published 2022):

Test system: CD4+ T cells
Experiment: Neutralizing activity assay: cytokine production by PMA/ionomycin-stimulated CD4+ T cells in contact with mycolactone
Assay type: cell-based, C57Bl/6 mice
Conditions: mycolactone 4 ng/mL, 6 h, compared to positive control (T cells only stimulated)
Description: FIG. 2: Neutralization of mycolactone by cutaneous immunoglobulin from FVB/N mice infected with M. ulcerans. CD4+ lymphocytes were stimulated with PMA/ionomycin. Mycolactone was used at a concentration of 4 ng/mL. Immunoglobulins purified from the skin of A) FVB/N mice or B) C57Bl/6 mice infected with M. ulcerans were used at a ratio of 10 immunoglobulin molecules per molecule of mycolactone. Left panel: IL-2 quantification, Right panel: IFNγ quantification. The data shown correspond to one experiment performed in triplicate (mean±SD).
CD4+ T cells were isolated from the spleens of C57Bl/6 mice by magnetic sorting (MACS technology kit 130-104-454), according to the manufacturer's instructions (Miltenyi Biotec). The purity of CD4+ T-cell preparations was determined by flow cytometry, with PE-conjugated anti-CD4 monoclonal antibody (eBioscience) and FITC-conjugated anti-CD3E monoclonal antibody (eBioscience). […] IL-2 and IFN-γ were quantified by ELISA (eBioscience), according to the manufacturer's instructions (Mouse IL-2 Ready-SET-Go: 88-7024 and Mouse IFN-γ Ready-SET-Go: 88-7314 respectively).
In this context, we assessed whether these antibodies could not only recognized but also neutralized mycolactone, by evaluating cytokines production by T lymphocytes as an indicator of the immunomodulatory property of mycolactone. […]

CC(=C\C=C\C(C)=C\[C@H](O)[C@@H](O)C[C@H](C)O)/C=C(C)/C=C/C(=O)O[C@H]1CCCC(=O)O[C@@H]([C@@H](C)C/C(C)=C/[C@@H](C)[C@H](O)C[C@@H](C)O)C/C=C(\C)C[C@@H]1C [mycolactone, [(6S,7S,9E,12R)-12-[(E,2S,6R,7R,9R)-7,9-dihydroxy-4,6-dimethyldec-4-en-2-yl]-7,9-dimethyl-2-oxo-1-oxacyclododec-9-en-6-yl] (2E,4E,6E,8E,10E,12S,13S,15S)-12,13,15-trihydroxy-4,6,10-trimethylhexadeca-2,4,6,8,10-pentaenoate]
IFNγ production by T cells: greatly decreased | IL-2 production by T cells: greatly decreased
